Assay results taken from patent publication US9765019B2, “Small-molecule-targeted protein degradation” (Brandeis University, priority 2011, dated 2017).
“Also recorded” adds a separate entry of the source. Residues, ends and D or L forms follow the SMILES beside them. *: point of attachment. Cbz = O=C(OCc1ccccc1)*

Experiments:
[1] = molecular target: T1, human glutathione-S-transferase α-1 (Homo sapiens, UniProt P08263); experiment: Degradation of pre-inhibited GST-α-1 in cell lysates (Western blot); type: biochemical; settings: for Degradation of GST-α-1 in cell lysates: protein pre-treated with inhibitor, lysates from reticulocytes, HeLa, Cos and NIH 3T3 cells
T1 construct: HA (N); made in house; host or cells: Escherichia coli (pOXO4-α1 vector)
T1 sequence (P08263 1-222): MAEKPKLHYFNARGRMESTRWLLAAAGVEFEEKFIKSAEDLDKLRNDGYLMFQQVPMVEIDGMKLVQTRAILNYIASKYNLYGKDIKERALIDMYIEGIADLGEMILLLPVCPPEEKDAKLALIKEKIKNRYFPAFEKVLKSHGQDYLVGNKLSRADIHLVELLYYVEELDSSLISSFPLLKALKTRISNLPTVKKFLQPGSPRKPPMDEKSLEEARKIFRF
Procedure: The gel was transferred onto a polyvinyldifluoride membrane in Towbin (3 g Tris/14.4 g glycine) buffer, 100V for 1.2 hours then 40V for 3 hours for 18% gels, and 100 V for 1.2 hours for 12% gels. The membrane was blocked with 3% non-fat milk in Tris buffered saline (100 mM Tris base, 500 mM NaCl, pH 7.6) for one hour, then directly added to a solution of anti HA-HRP conjugated antibody in 0.5% non-fat milk in Tris buffered saline with 0.05% tween-20 for 2 hours. Membrane was washed twice with Tris buffered saline with 0.05% Tween 20 for 10 minutes, then washed once with Tris buffered saline for 15 minutes. The residual buffer was removed then exposed to ECL Plus™ (GE healthcare) for 5 minutes. Membrane was visualized by exposure to film (HyBlot CL, Denville Scientific). For in cell degradation assays, the membrane was cut in half (at approximately 40 kiloDaltons) and the lower molecular weight portion was probed and visualized with anti-GAPDH-HRP, protocol same as for anti-HA except Tris buffered saline contained 150 mM NaCl, not 500 mM. The higher molecular weight portion of the membrane was probed and visualized with anti-HA-HRP.
Human glutathione-S-transferase α-1 bearing an N-terminal HA tag was recombinantly expressed in Escherichia coli using the pOXO4-α1 vector. This was purified using glutathione affinity chromatography (GST-Bind™, Novagen). Escherichia coli dihydrofolate reductase bearing an N-terminal (His)6 tag and a C-terminal HA tag was recombinantly expressed in Escherichia coli using a pET28a vector. This was purified using Ni-NTA resin (Qiagen).
The cells were then serum starved for 2 days in the case of Cos and HeLa cells and 1 day in the case of NIH3T3 cells. The cells were washed with phosphate buffered saline and then trypsinized. Cells were collected, and an equal volume of complete medium was added. Cells were pelleted by centrifugation and the supernatant was aspirated. The cell pellet was washed three times with phosphate buffered saline. Cell pellets were stored at −80° C. until required. Cells were thawed on ice and maintained at 4° C. until required for the assay. […] The cells were lysed in a Dounce homogenizer (10 strokes), and then centrifuged at 14000 rpm for 30 minutes. The clarified lysate was normalized to an optimized concentration of 1 mg/mL (Bradford assay, Biorad®, as per manufacturer's instructions, using immunoglobulin as a standard) with lysis buffer. A 10×ATP regeneration buffer was made consisting of the following 1 mg/mL creatine kinase (Roche Diagnostics®), 600 mM creatine phosphate, 100 mM ATP, 200 mM Tris pH 8.0, 600 mM MgCl2. This was incubated at 37° C. for 30 minutes prior to use. Assays were conducted in […] total volume [including 1×ATP regeneration buffer, and 120 ng of HA-tagged protein (1 μL) preinhibited with 100 μM ethacrynic acid-derived inhibitor, or 1 μM trimethoprim-derived inhibitor] in 250 μL PCR tubes. Prior to assay 50 μL Chill Out wax (Biorad®) was overlaid on the top of the vial. 15 μL aliquots were extracted and diluted into 6 μL of 5× reducing SDS PAGE loading buffer and immediately frozen by being placed into dry ice. These were stored at −80° C. until required. Samples were thawed at 100° C. and continued to be boiled for 5 minutes. The samples were then centrifuged at 14,000 rpm on a microcentrifuge for 30 minutes and loaded onto an 18% polyacrylamide SDS PAGE gel, and Western blotted as per Example 2.

[2] = molecular target: T2, eDHFR-HA-GST-α1 (UniProt P08263+P0ABQ4); experiment: Degradation of eDHFR-HA-GST-α1 ectopically expressed in HeLa cells; type: cell-based; settings: for Degradation of eDHFR-HA-GST-α1: cycloheximide treated HeLa cells
T2 construct: expressed in transfected cells; host or cells: HeLa cells
T2 sequence (P0ABQ4+P08263 with tags, fused parts or gaps): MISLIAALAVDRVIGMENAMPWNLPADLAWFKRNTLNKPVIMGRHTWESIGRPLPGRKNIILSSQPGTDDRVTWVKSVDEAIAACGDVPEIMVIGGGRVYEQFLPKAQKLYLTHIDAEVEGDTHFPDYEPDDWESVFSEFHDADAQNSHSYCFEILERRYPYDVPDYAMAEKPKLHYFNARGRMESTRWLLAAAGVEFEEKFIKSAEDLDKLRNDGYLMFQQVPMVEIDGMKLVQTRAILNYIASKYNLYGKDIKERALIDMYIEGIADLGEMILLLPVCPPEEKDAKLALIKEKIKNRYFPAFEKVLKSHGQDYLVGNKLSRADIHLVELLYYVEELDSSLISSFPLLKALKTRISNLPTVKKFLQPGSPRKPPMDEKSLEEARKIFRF
Description: FIG. 5 depicts degradation of GST-α1-HA in HeLa cell lysates and eDHFR-HA-GST in HeLa cells.

[3] = system: endogenous GST-π; experiment: Degradation of endogenous GST-π in whole cells (immunoblot); type: cell-based; settings: two hours
Procedure: FIG. 12 depicts degradation of endogenous GST-π. Cells were incubated with EA-Boc3Arg for 2 hours. Degradation was monitored by immuno-blotting with anti-GST antibodies. EA=right bar; EA-Boc3-Arg=left bar.
The ability of EA-Boc3Arg to degrade endogenous GST-π in the context of whole cells was also investigated. […] The Boc3Arg moiety can regulate endogenous protein levels in vivo.

[4] = system: proteasome; experiment: Effect of proteasome inhibitors on Boc3Arg-induced degradation (lysates and whole HeLa cells); settings: GST-α-1 in cell lysates; eDHFR fusion proteins in HeLa cells
[5] = molecular target: eDHFR-HA-GFP (Escherichia coli, UniProt P0ABQ4); settings: transfected HeLa cells
Procedure: FIG. 6 depicts degradation of eDHFR-HA in cell lysates and degradation of eDHFR fusion proteins in HeLa cells. (A) Degradation of eDHFR in HeLa cells lysates; (B) quantification of panel (A); (C) Global protein stability (GPS) assay. Cells co-express red fluorescent protein (RFP) and DHFR-HA-GFP from a bicistronic construct. Red and green fluorescence was measured by flow cytometry.
Protein degradation in whole cells was also assessed. eDHFR-HA-GFP was co-expressed with Discosoma sp. red fluorescent protein (RFP) in a bicistronic construct under control of a CMV promoter, with DHFR-HA-GFP translation occurring at the internal ribosome binding site. Thus a single mRNA is responsible for the production of both RFP and DHFR-HA-GFP, so that similar ratios of both proteins should be produced in all transfected cells. Changes in the relative intensities of red and green fluorescence are measured by flow cytometry, providing a facile and quantitative measure of the degradation of DHFR-HA-GFP in living cells and real time.
Cells were grown to 90% confluence in Dulbecco's Modified Minimal Essential Medium supplemented with 10% fetal bovine serum, 1×L-glutamine with no antibiotic in a 6 well plate. At this point the cells were serum starved, and then transfected using […] plasmid (expression driven by the cytomegalovirus promoter; gene coding for enhanced green fluorescent protein fused to the C-terminus of E. coli dihydrofolate reductase): 2 μL Transfectin™ (Biorad) per well. 48 hours after transfection, media was once again aspirated, and fresh serum free media was added. Cycloheximide (final concentration 100 μg/mL) was then added to the cells and after 5 minutes, 30 μM inhibitor was added. At each time point (45 minutes), media was aspirated, cells were trypsinized, centrifuged and washed three times with phosphate buffered saline. Cell pellets were flash frozen in dry ice, and then stored indefinitely at −80° C. The cells were thawed on ice, and then resuspended in lysis buffer (150 mM sucrose, 200 mM sodium phosphate, 43 mM MgCl2, pH 7.8, 0.1% triton X-100). Cells were lysed by two freeze/thaw cycles (−80° C. for 5 minutes, then 4° C. for 10 minutes). Lysate concentrations were normalized by dilution with lysis buffer such that they gave the same A595 when diluted into Bradford assay dye (Biorad).

C=C(CC)C(=O)c1ccc(OCC(=O)NCCCCCCNC(=O)C(CCCNC(=N)NS(=O)(=O)c2ccc(C)cc2)NOC(=O)Cc2ccccc2)c(Cl)c1Cl (centres unmarked) [Compound 2, N-(6-(2-(2,3-Dichloro-4-(2-methylenebutanoyl)phenoxy)acetamido)hexyl)-2-(benzylcarbonyloxyamino)-5-(3-tosylguanidino)pentanamide]
Degradation of GST-α-1 in cell lysates [1]: functional degradation tag

C=C(CC)C(=O)c1ccc(OCC(=O)O)c(Cl)c1Cl [EA, ethacrynic acid, reference compound]
Degradation of eDHFR-HA-GST-α1 [2]: does not
Degradation of GST-α-1 in cell lysates [1]: No degradation was observed

C=C(CC)C(=O)c1ccc(OCC(=O)NCCCCCCNC(=O)C(CCCNC(=NC(=O)OC(C)(C)C)NC(=O)OC(C)(C)C)NC(=O)OC(C)(C)C)c(Cl)c1Cl (centres unmarked) [EA-Boc3Arg, N-(6-(2-(2,3-Dichloro-4-(2-methylenebutanoyl)phenoxy)acetamido)hexyl)-5-(2,3-di-t-butoxycarbonylguanidino)-2-(t-butoxycarbonylamino)pentanamide]
Degradation of eDHFR-HA-GST-α1 [2]: can cause degradation
Degradation of GST-α-1 in cell lysates [1]: Degradation was observed
Degradation of GST-α-1 in cell lysates ([1]; listed as 1): promotes the degradation
depletion in the GST-π signal [3]: 30%

CC(C)(C)OC(=O)N=C(NCCCC(NC(=O)OC(C)(C)C)C(=O)NCCCCCCSc1ccc([N+](=O)[O-])c2nonc12)NC(=O)OC(C)(C)C (centres unmarked) [Fur-Boc3Arg, 5-(2,3-Di-tert-butoxycarbonylguanidino)-2-(tert-butoxycarbonylamino)-N-(6-(7-nitrobenzo[c][1,2,5]oxadiazol-4-ylthio)hexyl)pentan amide]
Degradation of Fur-Boc3Arg-modified GST-α-1 ([1]; NIH 3T3 cell lysates): readily degraded; also recorded: induces the degradation

CC(C)C[C@@H](C=O)NC(=O)[C@H](CC(C)C)NC(=O)[C@H](CC(C)C)NC(=O)OCc1ccccc1 [MG 132] (Cbz-Leu-Leu-Leu-aldehyde)
Effect on Boc3Arg-induced degradation [4]: block; also recorded: prevent degradation

Cc1cc(C(=O)CN2CCCC2)c(C)n1-c1ccc(F)cc1 [PU1, reference compound]
Effect on degradation of eDHFR-HA-GFP [5]: slower

CC(C)C[C@H](NC(=O)[C@H](Cc1ccccc1)NC(=O)c1cnccn1)B(O)O [bortezomib]
Effect on Boc3Arg-induced degradation [4]: block; also recorded: prevent degradation
Effect on degradation of eDHFR-HA-GST-α1 by EA-Boc3Arg ([2]; cycloheximide and non-cycloheximide treated HeLa cells): retards degradation
Effect on degradation of eDHFR-HA-GFP [5]: slower

CC(=O)N[C@@H](CSC(=O)[C@]1([C@@H](O)C(C)C)NC(=O)[C@H](C)[C@@H]1O)C(=O)O [lactacystin]
Effect on Boc3Arg-induced degradation [4]: block
